# Laboratory results as given in patent US10646459B2, “Sphingosine pathway modulating compounds for the treatment of cancers” (Enzo Biochem, Inc., priority 2017, dated 2020).
# Legend:
# Huh7 cells = assay: Apoptosis/necrosis assay (flow cytometry), Huh7 cells; format: cell-based, human; settings: 24 hours; SK1-I 10, 20, 40 μM; ozanimod 5, 10, 20 μM; ABC294640 10, 20, 40 μM; vs no-drug control
# Experimental: (§1) Apoptosis/necrosis assays evaluating the effect of different concentrations of each of ozanimod, ABC294640 and SK1-I on the four human hepatocellular carcinoma cell lines, Hep G2, Hep 3B, Huh 7 and PLC-PRF5 were also performed.
# (§2) The protocol used for the apoptosis assays was: • Plated cells in 6-well plates and incubated at 37° C. overnight. • Prepared concentrations of test compound and control compound DMSO in media. • Ozanimod: 5 μM, 10 μM, and 20 μM. • ABC294640: 10 μM, 20 μM, and 40 μM. • SK1-I: 10 μM, 20 μM, and 40 μM. • Control: 0.2% DMSO. • Aspirated the medium from the 6-well plates and added test compound concentrations in media or 0.2% DMSO control in media. Incubated at 37° C. for 24 hours. • Collected and processed the cells following the flow cytometry protocol of the GFP Certified® Apoptosis/Necrosis detection kit from Enzo Life Sciences, Inc. (product no. ENZ-51002; Farmingdale, N.Y., USA).
# (§3) FIGS. 5-16 present graphs plotting the data from these 24-hour apoptosis assays for the different concentrations of compounds and no-drug control for the various cell lines. Channel FL2 picks up the apoptosis signal and channel FL3 picks up the necrosis signal. Data points in Quadrant 3 (Q3) in the graphs corresponds to cells undergoing apoptosis (cells positive for the apoptosis detection reagent of the assay). Data points in Quadrant 2 (Q2) in the graphs corresponds to cells that are positive for the apoptosis detection reagent and positive for the necrosis detection reagent of the assay (indicative of late-stage apoptosis).
# Hep 3B cells = assay: Apoptosis/necrosis assay (flow cytometry), Hep 3B cells; format: cell-based, human; settings: 24 hours; SK1-I 10, 20, 40 μM; ozanimod 10, 20, 40 μM; ABC294640 10, 20, 40 μM; vs no-drug control
# Experimental: as §1
# as §2, with “[…],” for “concentrations of test compound and control compound DMSO in media. • Ozanimod: 5 μM, 10 μM, and 20 μM. • ABC294640: 10 μM,”
# as §3
# PLC-PRF5 cells = assay: Apoptosis/necrosis assay (flow cytometry), PLC-PRF5 cells; format: cell-based, human; settings: 24 hours; SK1-I 10, 20, 40 μM; ozanimod 5, 10, 20 μM; ABC294640 10, 20, 40 μM; vs no-drug control
# Experimental: as §1, §2, §3
# Hep G2 cells = assay: Apoptosis/necrosis assay (flow cytometry), Hep G2 cells; format: cell-based, human; settings: 24 hours; SK1-I 10, 20, 40 μM; ozanimod 10, 20, 40 μM; ABC294640 10, 20, 40 μM; vs no-drug control
# Experimental: as §1
# as §2, with “[…],” for “concentrations of test compound and control compound DMSO in media. • Ozanimod: 5 μM, 10 μM, and 20 μM. • ABC294640: 10 μM,”
# as §3
# [1] = tested on: Jurkat cells (human T-cell leukemia cell line); assay: Apoptosis assay, Jurkat cells; format: cell-based; settings: SK1-I 10, 20 μM; ozanimod 5, 10 μM; vs no-drug control
# Experimental: as §2
# as §3, with “apoptosis). […]” for “apoptosis).”
# [2] = tested on: primary human hepatocytes; assay: Apoptosis/necrosis assay, normal primary human hepatocytes; format: cell-based; settings: 24 hours; SK1-I 10, 20, 40 μM; ozanimod 2.5, 5, 10 μM; normal (non-cancerous) cells
# Experimental: In still further experiments, the effects of SK1-I and ozanimod on normal (non-cancerous) primary human hepatocytes were investigated. Fresh human hepatocytes in a 12-well plate (HUF12) were obtained from Triangle Research Labs (Durham, N.C., USA; part of Lonza Group) and handled according to the supplier's protocol. The shipping medium was aspirated from each well and replaced with 1 ml per well of warm Hepatocyte Maintenance Medium. The plate was then placed in a 5% CO2 incubator at 37° C. and the hepatocytes were allowed to acclimate overnight. The Hepatocyte Maintenance Medium was replaced before treatment with drug or no-drug control, and the hepatocytes were treated with 0 μM (no-drug control), 10 μM, 20 μM, or 40 μM SK1-I or 0 μM, 2.5 μM, 5 μM, or 10 μM ozanimod for 24 hours under incubation. The cells were then harvested and analyzed using the GFP Certified® Apoptosis/Necrosis detection kit. The results are shown in FIGS. 19A-D for SK1-I and FIGS. 20A-D for ozanimod as follows.
# [3] = tested on: human hepatocellular carcinoma cell lines Hep G2, Huh 7, and PLC-PRF5; assay: MTT cell viability assay (48 hours); format: cell-based; settings: Hep G2, Huh 7, PLC-PRF5
# Experimental: The following MTT assay protocol was followed. • Prepared stock solutions: 50 mM ozanimod, 50 mM ABC294640, 10 mM SK1-I in DMSO. • Plated 20000 cells in 160 μl medium per well in 96-well plates for each cell line and incubated at 37° C. overnight. • Prepared compound serial dilutions: for ozanimod and ABC294640: dilute stock 50 mM 1:50 in medium to 1000 μM; for SK1-I, dilute stock 10 mM 1:50 in medium to […], them make serial 1:1.8 fold serial dilution to the titration. For negative control, diluted DMSO 1:50 to medium. • Added 40 μl negative control and serially titrated compounds to 160 μl of cells for each cell line. Performed in triplicate for each cell line. • Incubated at 37° C. for 72 hours. • Performed assay using Vybrant MTT Cell Proliferation Assay kit (V-13154) (Molecular Probes) from Thermo Fisher Scientific (Waltham, Mass. USA).
# 48-hour treatment MTT assays were also performed as follows.
Structure (SMILES),induction of apoptosis in Huh7 cells (Huh7 cells),induction of apoptosis in Hep 3B cells (Hep 3B cells),induction of apoptosis in PLC-PRF5 cells (PLC-PRF5 cells),induction of apoptosis in Hep G2 cells (Hep G2 cells),induction of apoptosis in Jurkat cells [1],induction of apoptosis of primary human hepatocytes [2],"killing of hepatocellular carcinoma cells (MTT), comparison with PF-543 [3]"
"O=C(NCc1ccncc1)C12CC3C[C@H](C1)CC(c1ccc(Cl)cc1)(C3)C2 [ABC294640, (7S)-3-(4-chlorophenyl)-N-(pyridin-4-ylmethyl)adamantane-1-carboxamide]",failed to induce apoptosis,did not substantially induce apoptosis,did not substantially induce apoptosis,failed to induce apoptosis,,,
"CC(C)Oc1ccc(-c2nc(-c3cccc4c3CC[C@@H]4NCCO)no2)cc1C#N [Ozanimod, 5-[3-[(1S)-1-(2-hydroxyethylamino)-2,3-dihydro-1H-inden-4-yl]-1,2,4-oxadiazol-5-yl]-2-propan-2-yloxybenzonitrile]",strongly induced apoptosis,strongly induced apoptosis,strongly induced apoptosis,strongly induced apoptosis,strongly induced apoptosis,did not induce apoptosis,
"CCCCCc1ccc(/C=C/[C@H](O)[C@@H](CO)NC)cc1 [SK1-I, (E,2R,3S)-2-(methylamino)-5-(4-pentylphenyl)pent-4-ene-1,3-diol]",strongly induced apoptosis,strongly induced apoptosis,strongly induced apoptosis,strongly induced apoptosis,strongly induced apoptosis,did not induce apoptosis,more effective at killing hepatocellular carcinoma cells than PF-543
